{
  "source": "ChEMBL document CHEMBL1150677",
  "about": "“Novel tetramic acids and pyridone alkaloids, militarinones B, C, and D, from the insect pathogenic fungus Paecilomyces militaris” (J Nat Prod, 2003)",
  "key": {"[1]": {"system": "PC-12", "experiment": "Neuritogenic activity in rat PC12 cells at 100 uM after 16 hrs", "assay_type": "functional, cell-based"}, "[2]": {"system": "PC-12", "experiment": "Cytotoxicity against rat PC12 cells assessed as effect on LDH release at 100 uM after 24 hrs", "assay_type": "cell-based", "settings": "pc-12, 24 h"}, "[3]": {"system": "PC-12", "experiment": "Cytotoxicity against rat PC12 cells assessed as effect on LDH release at 33 uM after 24 hrs", "assay_type": "cell-based", "settings": "pc-12, 24 h"}, "[4]": {"system": "PC-12", "experiment": "Cytotoxicity against rat PC12 cells assessed as effect on LDH release after 24 hrs", "assay_type": "cell-based", "settings": "pc-12, 24 h"}},
  "note": "Activity calls are given as the source filed them. The rule behind the calls is not given here.",
  "data": [
    {"compound": "CC[C@@H](C)C[C@@H](C)/C=C(C)/C=C/C=C/C(O)=C1\\C(=O)NC(C(O)c2ccc(O)cc2)C1=O", "note": "(relative stereo) [MILITARINONE C]", "values": [
      {"measurement": "Activity", "setting": "[1]", "value": "Active"},
      {"measurement": "Activity", "setting": "[2]", "value": 16.8, "unit": "%"}
    ]},
    {"compound": "CC[C@@H](C)C[C@@H](C)/C=C(C)/C=C/C=C/C(=O)c1c(O)c(-c2ccc(O)cc2)c[nH]c1=O", "note": "(relative stereo) [MILITARINONE B]", "values": [
      {"measurement": "Activity", "setting": "[3]", "value": 30.7, "unit": "%"},
      {"measurement": "Activity", "setting": "[1]", "value": "inactive"},
      {"measurement": "Activity", "setting": "[2]", "value": 74, "unit": "%"}
    ]},
    {"compound": "CC[C@@H](C)C[C@@H](C)/C=C(C)/C=C/C=C/C(O)=C1\\C(=O)NC(Cc2ccc(O)cc2)C1=O", "note": "(relative stereo) [MILITARINONE D]", "values": [
      {"measurement": "Activity", "setting": "[1]", "value": "Active"},
      {"measurement": "Activity", "setting": "[4]", "value": "Non-toxic"}
    ]}
  ]
}
